Results from patent US10456439B2, “NK3 agonist for use in the treatment of a patient suffering from atrial arrhythmia or fibrillation” (priority 2014, dated 2019).
Entries after “also recorded” stand apart in the source; their conditions may differ. Where a SMILES comes first, the peptide text is derived from it.

Legend:
[1] = molecular target: T1, Murine NK3 receptor (Mus musculus, UniProt P47937); settings: read-out: Binding (Inhibition of [125I]-[MePhe7]neurokinin B) Murine NK3 receptor, Ki; HEK 293-murine NK3 receptor cells; mean ± SEM; cited from earlier work
T1 construct: expressed in transfected cells; host or cells: HEK 293
T1 sequence (P47937 1-452): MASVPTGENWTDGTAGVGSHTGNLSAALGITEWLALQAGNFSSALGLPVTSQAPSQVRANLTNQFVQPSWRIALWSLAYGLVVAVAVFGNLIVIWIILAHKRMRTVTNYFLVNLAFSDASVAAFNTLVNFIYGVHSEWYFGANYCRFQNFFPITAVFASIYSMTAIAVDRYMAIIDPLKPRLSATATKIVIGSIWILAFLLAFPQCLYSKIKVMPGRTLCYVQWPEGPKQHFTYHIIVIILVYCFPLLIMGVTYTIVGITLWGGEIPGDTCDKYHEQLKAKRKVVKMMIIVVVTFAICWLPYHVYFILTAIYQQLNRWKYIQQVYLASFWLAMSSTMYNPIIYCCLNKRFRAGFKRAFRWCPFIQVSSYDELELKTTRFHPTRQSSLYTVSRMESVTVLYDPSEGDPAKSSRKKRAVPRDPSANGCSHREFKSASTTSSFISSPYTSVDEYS

[2] = test system: rabbit ventricular myocytes; test: Action potential recording (perforated patch clamp) in rabbit ventricular myocytes; settings: 2 Hz, 1-10 μM substance P or 100 nM Senktide
Experimental: (§2) Male New Zealand White specified pathogen free rabbits (2.5-3.5 kg) were anaesthetized with a combination of 20 mg xylazine and 100 mg ketamine (intramuscularly) and heparinized with a bolus of 1000 IU heparin (intravenously). Subsequently, the animals were killed by 200 mg pentobarbital intravenously, after which the heart was quickly excised and mounted on a langendorff perfusion apparatus. […] Single atrial cells were isolated from the left atrium using the same protocol with a modification consisting of complementing the enzymatic solution with 6.6 pg/mL protease.
(§3) Small aliquots of single cell suspension were introduced into a recording chamber on the stage of an inverted microscope. Cells were allowed to adhere for 5 minutes after which superfusion was started. Single quiescent rod-shaped myocytes with clear cross-striations and smooth surfaces were selected for measurements.
(§4) Voltage control, data acquisition, and analysis were performed using custom-made software.
(§5) Potentials were corrected for liquid junction potential [3]. Signals were low-pass filtered (cut-off frequency: 5 kHz) and digitized at 40 kHz. Cell membrane capacitance (Cm) was estimated by dividing the decay time constant of the capacitive transient in response to 5 mV hyperpolarizing voltage clamp steps from a holding potential of −40 mV, by the series resistance.
(§6) APs were measured with the amphotericin-B-perforated patch clamp technique using normal Tyrode's solution containing (in mM): NaCl 140, KCl 5.4, CaCl2 1.8, MgCl2 1.0, glucose 5.5, HEPES 5.0, pH 7.4 (NaOH). The patch-pipettes (borosilicate glass; 1-3 MΩ) were filled with a ‘standard’ solution containing (in mM): K-gluconate 110, KCl 30, NaCl 5, MgCl2 1, amphotericin-B 0.22, HEPES 10, pH 7.3 (KOH).
(§7) APs were elicited at 2 Hz by 2-ms (1.5×diastolic stimulation threshold) current pulses applied through the patch pipette. […] Values obtained from 10 consecutive APs were averaged.
(§8) The NK-agonists were applied in a cumulative sequence with 5 minutes intervals between increments in concentration. Effects were assessed after equilibration, but not earlier than 3 minutes after application.

[3] = molecular target: T1, Murine NK3 receptor; settings: HEK 293-murine NK3 receptor cells; mean ± SEM; read-out: Ca2+ Mobilization Murine NK3 receptor, EC50; cited from earlier work
[4] = test system: rabbit atrial myocytes; test: Action potential recording (perforated patch clamp) in rabbit atrial myocytes; settings: increasing concentrations, result in words
Experimental: as §2, §3, §4, §5, §6, §7, §8

[5] = molecular target: T2, NK2-receptor (Homo sapiens, UniProt P21452); settings: cited from earlier work
T2 sequence (P21452 1-398): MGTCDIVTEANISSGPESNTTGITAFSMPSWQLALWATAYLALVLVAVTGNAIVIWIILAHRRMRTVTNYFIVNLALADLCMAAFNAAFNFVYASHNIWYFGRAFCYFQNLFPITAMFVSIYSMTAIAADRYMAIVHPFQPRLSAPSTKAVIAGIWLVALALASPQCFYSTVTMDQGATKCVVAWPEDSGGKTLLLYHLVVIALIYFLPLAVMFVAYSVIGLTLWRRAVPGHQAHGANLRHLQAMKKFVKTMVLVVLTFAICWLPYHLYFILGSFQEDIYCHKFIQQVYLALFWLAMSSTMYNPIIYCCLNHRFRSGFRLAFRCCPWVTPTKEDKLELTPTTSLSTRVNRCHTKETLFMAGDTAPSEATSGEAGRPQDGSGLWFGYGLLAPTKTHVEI

[6] = molecular target: T3, NK-3 receptor (Homo sapiens, UniProt P29371); settings: cited from earlier work
T3 sequence (P29371 1-465): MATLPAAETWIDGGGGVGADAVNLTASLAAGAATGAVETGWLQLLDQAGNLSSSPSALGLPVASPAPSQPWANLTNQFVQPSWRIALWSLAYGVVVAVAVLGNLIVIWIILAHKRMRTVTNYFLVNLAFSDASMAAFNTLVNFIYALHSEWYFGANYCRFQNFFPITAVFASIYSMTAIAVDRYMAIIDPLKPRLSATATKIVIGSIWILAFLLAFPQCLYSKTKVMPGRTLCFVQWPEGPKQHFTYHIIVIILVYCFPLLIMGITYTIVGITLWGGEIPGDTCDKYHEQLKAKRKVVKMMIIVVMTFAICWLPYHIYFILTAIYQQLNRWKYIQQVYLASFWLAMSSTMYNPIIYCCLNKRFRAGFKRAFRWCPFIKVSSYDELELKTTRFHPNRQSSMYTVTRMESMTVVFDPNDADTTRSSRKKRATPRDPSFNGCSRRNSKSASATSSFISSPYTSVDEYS

[7] = molecular target: NK-1 receptor (Homo sapiens, UniProt P25103); settings: cited from earlier work
[8] = molecular target: T3, NK-3 receptor; settings: cited from earlier work; remark: listed apart in the source
[9] = molecular target: T3, NK-3 receptor; parameters: expressed in transfected cells; host or cells: HEK 293; settings: read-out: Binding (Inhibition of [125I]-[MePhe7]neurokinin B) Human NK3 receptor, HEK 293-human NK3 receptor cells, mean ± SEM; cited from earlier work
[10] = molecular target: T3, NK-3 receptor; parameters: expressed in transfected cells; host or cells: HEK 293; settings: HEK 293-human NK3 receptor cells, mean ± SEM, read-out: Ca2+ Mobilization Human NK3 receptor; cited from earlier work
[11] = test system: left atrium of Langendorff-perfused rabbit heart; test: Left atrial effective refractory period in Langendorff-perfused rabbit hearts; settings: for Longest S1-S2 interval that fails to produce atrial activation (A-ERP): basic cycle length 200 ms; for Effect on atrial effective refractory period, in words / Prolongation of the S1-S2 interval measured in the left atrium: Langendorff-perfused rabbit heart; for Prolongation of the S1-S2 interval measured in the left atrium: difference to control
Experimental: (§1) After the heart was excised, it was cannulated, quickly mounted on a Langendorff perfusion set-up, and perfused at 37° C. with a solution containing (in mmol/L) 128 NaCl, 4.7 KCl, 1.45 CaCl2), 0.6 MgCl2, 27 NaHCO3, 0.4 NaH2PO4, and 11 glucose (pH maintained at 7.4 by equilibration with a mixture of 95% 02 and 5% CO2). The left atrium (ventricle) was stimulated at a basic cycle length of 200 ms, and twice the diastolic stimulus current threshold. […] The effective refractory period was defined as the longest S1-S2 interval failing to produce atrial (ventricular) activation.

[12] = test system: left atrium of anesthetized rabbit; test: In vivo left atrial effective refractory period in the anesthetised rabbit; settings: single bolus 11 nmol/kg, basic cycle length 220 ms, control 110 ms
Experimental: Male New Zealand White rabbits were anesthetized with ketamine 50 mg/kg and xylazine 8 mg/kg (and additionally 0.09 mg/kg Temgesic for pain relief) subcutaneously, intubated, and artificially ventilated. Anesthesia was maintained by isoflurane (0.8-1.2%). Catheters for drug infusions and blood pressure recording were inserted into marginal ear veins/arteries. Following thoracotomy, the pericardium was opened to expose the heart. A stimulation- and recording-electrode were placed on the left atrium for epicardial electrophysiological study. The left atrium was stimulated at a basic cycle length of 220 ms, and twice the diastolic stimulus current threshold. […] The effective refractory period was defined as the longest S1-S2 interval failing to produce atrial activation. Approximately 30 minutes after the completion of the preparation when the rabbit was hemodynamically and electrophysiologically stable, control measurements were undertaken.

[13] = test system: ventricle of Langendorff-perfused rabbit heart; test: Ventricular effective refractory period in Langendorff-perfused rabbit hearts; settings: 20-50 nM Senktide
Experimental: as §1

[14] = test system: human left atrial appendage (LAA); test: Effective refractory period in human left atrial appendages; settings: basic cycle length 600 ms
Source text: Left atrial appendages (LAA) were routinely removed from patients with atrial fibrillation receiving PVI (pulmonary vein isolation) ablation. The LAAs were removed using an endoscopic stapling device (Endo Gia stapler, Tyco Healthcare Group). The tissue samples were transported in 100-mL cooled superfusion fluid (Na^+, 155.5 mmol/L; K^+, 4.7 mmol/L; Ca^2+, 1.45 mmol/L; Mg^2+, 0.6 mmol/L; Cl^−, 136.6 mmol/L; HCO3^−, 27 mmol/L; PO4^3−, 0.4 mmol/L; glucose, 11.1 mmol/L; and heparin, 1000 IE) and submerged in a tissue bath. The superfusion fluid was kept at a stable temperature of 36.5° C. to 37.5° C. and oxygenized with a mixture of 95% O2 and 5% CO2 to maintain a pH of 7.4. LAAs were stimulated at 100 beats per minute at 2-3 times diastolic threshold with a pulse width of 2 ms using an epicardial electrode.
The effective refractory period was defined as the longest S1-S2 interval failing to produce atrial (ventricular) activation.

Chain of NK-1 receptor (P25103 whole entry, species assumed): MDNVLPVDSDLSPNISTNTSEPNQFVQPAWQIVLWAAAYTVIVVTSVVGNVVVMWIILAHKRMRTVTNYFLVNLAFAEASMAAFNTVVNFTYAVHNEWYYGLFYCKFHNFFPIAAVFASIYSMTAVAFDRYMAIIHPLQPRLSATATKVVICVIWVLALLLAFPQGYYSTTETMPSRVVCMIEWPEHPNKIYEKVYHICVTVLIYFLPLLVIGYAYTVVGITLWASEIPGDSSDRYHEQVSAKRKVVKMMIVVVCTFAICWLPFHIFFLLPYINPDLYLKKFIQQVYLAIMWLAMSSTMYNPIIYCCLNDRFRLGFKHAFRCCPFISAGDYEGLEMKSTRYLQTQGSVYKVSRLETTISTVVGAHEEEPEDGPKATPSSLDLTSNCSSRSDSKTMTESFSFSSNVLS

## Substance P: agonist of multiple neurokinin receptors, CAS registry No. 33507-63-0
[1]
  Ki: 4920 ± 2250 nM
[2]
  Effect on ventricular action potential (AP) duration: does not prolong the AP
[2]; listed as substance P
  Effect on ventricular action potential (AP) duration: absence of effect
[3]
  EC50: 5.4 ± 2.4 nM
[4]
  Effect on atrial action potential (AP) duration: significantly prolongs the AP duration

## Neurokinin B: natural NK3-receptor agonist, CAS registry No. 86933-75-7
[5]
  NK2-receptor Affinity (pK1): 5.0-7.7 pK1
[1]
  Ki: 2.3 ± 0.3 nM
[3]
  EC50: 0.09 ± 0.02 nM

## CSCC[C@H](NC(=O)[C@H](CC(C)C)NC(=O)CNC(=O)[C@@H](NC(=O)[C@H](Cc1ccccc1)NC(=O)[C@H](CCC(N)=O)NC(=O)[C@H](CC(=O)O)NC(=O)[C@H](CO)NC(=O)[C@H](CCCCN)NC(=O)[C@@H]1CCCN1C(=O)[C@@H](NC(=O)[C@@H](N)CC(=O)O)C(C)C)C(C)C)C(N)=O [Kassinin] (H-DVPKSDQFVGLM-NH2)
[6]
  NK-3 receptor Affinity (pIC50): 6.7-7.0 pIC50
[7]
  NK-1 receptor Affinity (pIC50): 6.6-7.1 pIC50

## Neurokinin A: compound having CAS registry No. 86933-74-6
[8]
  NK-3 receptor Affinity (pEC50): 7.4 pEC50
[1]
  Ki: 785 ± 195 nM
[3]
  EC50: 0.82 ± 0.24 nM
[9]
  Ki: 3300 ± 240 nM
[6]
  NK-3 receptor Affinity (pK1): 5.5-6.3 pK1
[10]
  EC50: 22 ± 4 nM

## Asp-Met-His-Asp-Phe-Phe-(Me)Phe-Gly-Leu-Met-NH2 (DMHDFFFGLM; HELM PEPTIDE1{D.M.H.D.F.F.[meF].G.L.M.[am]}$$$$V2.0; N-terminus assumed; SMILES CSCC[C@H](NC(=O)[C@H](CC(C)C)NC(=O)CNC(=O)[C@H](Cc1ccccc1)N(C)C(=O)[C@H](Cc1ccccc1)NC(=O)[C@H](Cc1ccccc1)NC(=O)[C@H](CC(=O)O)NC(=O)[C@H](Cc1c[nH]cn1)NC(=O)[C@H](CCSC)NC(=O)[C@@H](N)CC(=O)O)C(N)=O; listed as Homo sapiens) [[MePhe^7]neurokinin B]
[8]
  NK-3 receptor Affinity (pEC50): 8.9 pEC50
[1]
  Ki: 0.6 ± 0.1 nM
[3]
  EC50: 0.26 ± 0.13 nM
[9]
  Ki: 1.8 ± 1 nM
[6]
  NK-3 receptor Affinity (pK1): 8.7-9.6 pK1
[10]
  EC50: 0.3 ± 0.1 nM
[11]; 20 nM (N-Me-Phe7)-NKB, control 75 ms
  Longest S1-S2 interval that fails to produce atrial activation (A-ERP): 105 ms
[11]
  Effect on atrial effective refractory period, in words: prolongs the atrial effective refractory period
  Prolongation of the S1-S2 interval measured in the left atrium: 30 ms

## RSRTRQFYGLM [Hemokinin-1]
[5]
  NK2-receptor Affinity (pK1): 6.3 pK1
[6]
  NK-3 receptor Affinity (pK1): 8.6-9.3 pK1
[7]
  NK-1 receptor Affinity (pK1): 9.8-11.7 pK1

## [Sar9, Met (O2)11]-Substance P
[4]
  Effect on atrial action potential (AP) duration: absence of effect; also recorded: does not affect AP duration

## CSCC[C@H](NC(=O)[C@H](CC(C)C)NC(=O)CNC(=O)[C@H](Cc1ccccc1)N(C)C(=O)[C@H](Cc1ccccc1)NC(=O)[C@H](CC(=O)O)NC(=O)CCC(=O)O)C(N)=O [Senktide, N-(3-carboxy-1-oxopropyl)-L-α-aspartyl-L-phenylalanyl-N-methyl-L-phenylalanylglycyl-L-leucyl-L-methioninamide] (HELM PEPTIDE1{[O=C(O)CCC(=O)[*:2]].D.F.[meF].G.L.M.[am]}$$$$V2.0)
[1]
  Ki: 11.9 ± 2.1 nM
[12]
  Longest S1-S2 interval that fails to produce atrial activation (A-ERP) in vivo: 160 ms
[2]
  Effect on ventricular action potential (AP) duration: absence of effect; also recorded: does not prolong the AP
[3]
  EC50: 0.15 ± 0.09 nM
[11]; 750 nM Senktide, control 80 ms
  Longest S1-S2 interval that fails to produce atrial activation (A-ERP): 100 ms
[11]
  Effect on atrial effective refractory period, in words: prolongs the atrial refractory period
  Prolongation of the S1-S2 interval measured in the left atrium: 20 ms
[4]
  Effect on atrial action potential (AP) duration: significantly prolongs the AP duration
[13]
  Effect on ventricular effective refractory period (V-ERP): not affected
[14]; 50 nM Senktide, control 290 ms
  Longest S1-S2 interval that fails to produce atrial activation (ERP) in human LAA: 440 ms
[14]; wash out after 50 nM Senktide
  Effective refractory period in human LAA after wash out: 320 ms

## CC[C@H](C)[C@H](NC(=O)[C@H](Cc1ccccc1)NC(=O)[C@H](C)NC(=O)[C@H](CC(=O)O)NC(=O)[C@H](CCCCN)NC(=O)[C@H](CO)NC(=O)[C@@H]1CCCN1C(=O)[C@@H]1CCC(=O)N1)C(=O)NCC(=O)N[C@@H](CC(C)C)C(=O)N[C@@H](CCSC)C(N)=O [Eledoisin] (HELM PEPTIDE1{[Glp].P.S.K.D.A.F.I.G.L.M.[am]}$$$$V2.0)
[6]
  NK-3 receptor Affinity (pIC50): 6.2-6.6 pIC50
[7]
  NK-1 receptor Affinity (pIC50): 8.6 pIC50
